Results taken from PubChem BioAssay AID2743 (NMMLSC, 2010).
Active and inactive are the calls of the source.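 The calls were made as follows: active = fitted half-maximal concentration for change in GFP expression of 33 µM or less; inactive = the rest.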

Experiment: potency of AGP1-GFP expression modulators in yeast, dose response, cell-based, flow cytometry, S. cerevisiae, MLPCN hits (AID 2743)
Details: S. cerevisiae AGP1-GFP strain, flow cytometry GFP, 3 h; at 33 µM (top of the series)

| Structure (SMILES) | GFP fluorescence (kMESF) |
| --- | --- |
| CC(C)[C@]1(c2ccccc2)ON(c2ccccc2C(F)(F)F)C1=O | 34.2 kMESF (inactive) |
| O=c1c(-c2ccc(Cl)cc2)[n+]([O-])c2ccccc2n1O | 38.1 kMESF (inactive) |
| Cc1ccc(/C=C2/C(=O)ON=C2c2ccccc2)o1 | 40.1 kMESF (inactive) |
| N/C(Cc1ccc(Cl)cc1)=N\OC(=O)c1ccccc1 | 23.8 kMESF (inactive) |
| Cc1ccc(C(=O)NNC(=S)NC(=O)COc2ccccc2)cc1 | 39.8 kMESF (inactive) |
| Cn1ncc2c(O/N=C(\N)c3ccc(C(C)(C)C)cc3)ncnc21 | 24.7 kMESF (inactive) |
| Cc1cccc(OCCN2CSC(=S)N(C)C2)c1 | 46.6 kMESF (inactive) |
| CCc1ccc2c(c1)/C(=C/C(=O)c1cccs1)C(=O)N2 | 42.4 kMESF (inactive) |
| CCCCCCCCn1sccc1=O | 31.5 kMESF (inactive) |
| Cc1ccc2nc(/C(C#N)=C/c3ccc(O)c(O)c3)[nH]c2c1 | 41.6 kMESF (inactive) |
| O=C1N(c2ccccc2C(F)(F)F)O[C@@]1(c1ccccc1)C1CCCCC1 | 36.2 kMESF (inactive) |
| CN(C)/C=C/C(=O)c1ccc(-c2ccc(Cl)cc2Cl)o1 | 27.8 kMESF (inactive) |
| O=C(Sc1cccc2cccnc12)c1ccccc1Br | 37.3 kMESF (inactive) |
| Cc1ccc(C(=O)O/N=C(\N)Cc2cccs2)c(Cl)c1 | 22.9 kMESF (inactive) |
| O=C(Cc1ccc(Cl)cc1)NNC(=S)NC(=O)c1cccs1 | 36.9 kMESF (inactive) |
| Cc1c(Br)c(=O)oc2c(Br)c(O)c(O)cc12 | 38 kMESF (inactive) |
| CCOC(=O)c1ccc(N=Cc2nc(-c3ccccc3)oc2OC(C)=O)cc1 | 33.5 kMESF (inactive) |
| O=C1NC(=O)N(Cc2ccc(F)cc2)C(=O)/C1=C/c1cccs1 | 28.1 kMESF (inactive) |
| COc1ccc2c(/C=C/c3cc[n+](C)cc3)c[nH]c2c1 | 44.4 kMESF (inactive) |
| C/C(=N\Nc1ncnc2sc(C)c(C)c12)c1ccccn1 | 26.5 kMESF (inactive) |
| Oc1cc(-c2ccc(N3CCCCC3)nc2)cc2cccnc12 | 31.5 kMESF (inactive) |
| CCc1ccc(/C=C/C(=O)c2cc(Br)ccc(=O)c2O)cc1 | 22.2 kMESF (inactive) |
| CCN(CC)c1ccc(/C=C2\C(=O)c3ccc(C(=O)O)cc3C2=O)cc1 | 747 kMESF (inactive) |

| Structure (SMILES) | GFP fluorescence (kMESF) |
| --- | --- |
| Cc1ccc(NC(=O)CCc2ccccc2)cc1S(=O)(=O)N1CCOCC1 | 40.4 kMESF (inactive) |
| COc1ccccc1NC1=C(Cl)C(=O)N(c2ccccc2)C1=O | 33 kMESF (inactive) |
| COc1cccc2c(=O)c(C(=O)NCc3cccs3)c[nH]c12 | 35.4 kMESF (inactive) |
| COc1cccc2sc(Nc3nc(-c4ccccn4)cs3)nc12 | 34.7 kMESF (inactive) |
| COc1ccc([C@]2(C(C)C)ON(c3ccccc3C(F)(F)F)C2=O)cc1 | 38.8 kMESF (inactive) |
| CCc1sc(C(=O)Nc2nc(-c3ccccn3)cs2)cc1C | 27.9 kMESF (inactive) |
| O=[N+]([O-])c1cc(CN2CCN(c3ccccc3)CC2)c(O)c2ncccc12 | 27 kMESF (inactive) |
| CS(=O)(=O)c1sc(C#N)c2c1C(=O)CC(c1ccccc1)C2 (stereo not given) | 38.9 kMESF (inactive) |
| O=c1c2sc(-c3ccccc3)cc2nc2n1CCC2 | 25 kMESF (inactive) |
| O=C(O)c1cccc(S(=O)(=O)Nc2ccc(S(=O)(=O)N3CCOCC3)cc2)c1 | 36.9 kMESF (inactive) |
| Nc1c(C(=O)c2cccs2)sc2nsc(SCCN3CCCCC3)c12 | 35.6 kMESF (inactive) |
| COc1ccc(C(=O)NC(=S)NNC(=O)c2cnccn2)cc1 | 42.8 kMESF (inactive) |
| CCCCCn1c(=O)c(C(=O)Nc2nc3ccccc3[nH]2)c(O)c2ccccc21 | 36.9 kMESF (inactive) |
| Cc1ccc(N/N=C(\C#N)C(N)=S)c(C)c1 | 38 kMESF (inactive) |
| CC(=O)[C@]1(O)Cc2c(O)c3c(c(O)c2[C@@H](O[C@H]2C[C@H](N)[C@H](O)[C@H](C)O2)C1)C(=O)c1ccccc1C3=O | 33.4 kMESF (inactive) |
| CC(c1ccccc1)N1C(=O)/C(=C/c2ccncc2)SC1=S (stereo not given) | 24.4 kMESF (inactive) |
| O=C1C=CC(=O)N1c1cccc(-c2ccccc2)c1 | 44.7 kMESF (inactive) |
| O=C(/C=C/c1ccnc2ccccc12)c1cccs1 | 45.9 kMESF (inactive) |
| CN(O)/C=c1/ccc2c(n1)C(=O)C=CC=2 | 39.5 kMESF (inactive) |
| O=[N+]([O-])c1cnc(Sc2ccncn2)s1 | 33.9 kMESF (inactive) |
| O=C(Nc1nc(-c2ccccn2)cs1)c1cc2ccccc2o1 | 38.7 kMESF (inactive) |
| C#CCOCCOCCOCCNc1nc(N2CCN(C(=O)CCCCCCCCCCNC(=O)[C@H](CCCCN)n3cc(CCO)nn3)CC2)nc(N2CCN(C(=O)CCCCCCCCCCNC(=O)[C@H](CCCCN)n3cc(C[C@@H](C)CC)nn3)CC2)n1 | 51.4 kMESF (inactive) |
